Source: patent US10597388B2, “Pyridazinone herbicides” (FMC CORPORATION, priority 2014, dated 2020)

Key:
Assay in all cases: Test E greenhouse herbicide test, pre- and postemergence
Format in all cases: in vivo
[1] = test system: goosegrass (Eleusine indica); settings: Preemergence
Outline: (§1)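 Visual ratings, 0 for no effect up to 100 for complete control, were taken relative to controls 14 to 21 d after greenhouse treatment. Applications used a surfactant-containing non-phytotoxic solvent formulation, sprayed either preemergence on silt loam-sown seed or postemergence on 1- to 4-leaf plants 2-18 cm tall in peat-based potting medium.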

[2] = test system: horseweed (Conyza canadensis)
Outline: as §1

[3] = test system: Italian ryegrass (Lolium multiflorum)
Outline: as §1

[4] = test system: waterhemp (common waterhemp, Amaranthus rudis)
Outline: as §1

[5] = test system: field bindweed (Convolvulus arvensis)
Outline: as §1

[6] = test system: barnyardgrass (Echinochloa crus-galli)
Outline: as §1

[7] = test system: ragweed (common ragweed, Ambrosia elatior)
Outline: as §1

[8] = test system: beggarticks (hairy beggarticks, Bidens pilosa)
Outline: as §1

[9] = test system: momingglory (Ipomoea coccinea); settings: Preemergence
Outline: as §1

[10] = test system: surinam grass (Brachiaria decumbens); settings: Preemergence
Outline: as §1

[11] = test system: nightshade (eastern black nightshade, Solanum ptycanthum); settings: Preemergence
Outline: as §1

[12] = test system: arrowleaf sida (Sida rhombifolia)
Outline: as §1

[13] = 62 g ai/ha, scale 0 to 100 (0 no effect, 100 complete control)
[14] = 31 g ai/ha, scale 0 to 100, 0 no effect, 100 complete control
[15] = 125 g ai/ha, visual, scale 0 no effect to 100 complete control
[16] = 250 g ai/ha, visual, scale 0 no effect to 100 complete control
[17] = 62 g ai/ha, Postemergence, scale 0 to 100 (0 no effect, 100 complete control)
[18] = 62 g ai/ha, Preemergence, scale 0 to 100 (0 no effect, 100 complete control)
[19] = 125 g ai/ha, Postemergence, scale 0 to 100 (0 no effect, 100 complete control)
[20] = 250 g ai/ha, Postemergence, scale 0 to 100 (0 no effect, 100 complete control)
[21] = Postemergence, 31 g ai/ha, visual, scale 0 no effect to 100 complete control
[22] = Preemergence, 31 g ai/ha, scale 0 to 100, 0 no effect, 100 complete control
[23] = Preemergence, 125 g ai/ha, visual, scale 0 no effect to 100 complete control
[24] = Preemergence, 250 g ai/ha, visual, scale 0 no effect to 100 complete control
[25] = 125 g ai/ha, Preemergence, scale 0 to 100 (0 no effect, 100 complete control)
[26] = 125 g ai/ha, scale 0 to 100 (0 no effect, 100 complete control)

Cc1nn(C)c(=O)c(-c2ccc(F)c3ccccc23)c1O [Compound 41]
Plant response rating, Goosegrass [1, 13]: 0
Plant response rating, Goosegrass [1, 14]: 0
Plant response rating, Goosegrass [1, 15]: 50
Plant response rating, Goosegrass [1, 16]: 60
Plant response rating, Horseweed [2, 17]: 80
Plant response rating, Horseweed [2, 18]: 100
Plant response rating, Horseweed [2, 19]: 80
Plant response rating, Horseweed [2, 20]: 70
Plant response rating, Horseweed [2, 21]: 75
Plant response rating, Horseweed [2, 22]: 100
Plant response rating, Horseweed [2, 23]: 100
Plant response rating, Horseweed [2, 24]: 100
Plant response rating, Ryegrass, Italian [3, 17]: 85
Plant response rating, Ryegrass, Italian [3, 18]: 100
Plant response rating, Ryegrass, Italian [3, 19]: 85
Plant response rating, Ryegrass, Italian [3, 25]: 100
Plant response rating, Ryegrass, Italian [3, 20]: 90
Plant response rating, Ryegrass, Italian [3, 21]: 80
Plant response rating, Ryegrass, Italian [3, 22]: 98
Plant response rating, Ryegrass, Italian [3, 24]: 100
Plant response rating, Waterhemp [4, 17]: 85
Plant response rating, Waterhemp [4, 18]: 98
Plant response rating, Waterhemp [4, 19]: 90
Plant response rating, Waterhemp [4, 25]: 100
Plant response rating, Waterhemp [4, 20]: 85
Plant response rating, Waterhemp [4, 21]: 75
Plant response rating, Waterhemp [4, 22]: 75
Plant response rating, Waterhemp [4, 24]: 100
Plant response rating, Field Bindweed [5, 17]: 90
Plant response rating, Field Bindweed [5, 18]: 70
Plant response rating, Field Bindweed [5, 19]: 85
Plant response rating, Field Bindweed [5, 20]: 95
Plant response rating, Field Bindweed [5, 21]: 80
Plant response rating, Field Bindweed [5, 22]: 30
Plant response rating, Field Bindweed [5, 23]: 75
Plant response rating, Field Bindweed [5, 24]: 90
Plant response rating, Barnyardgrass [6, 17]: 35
Plant response rating, Barnyardgrass [6, 18]: 25
Plant response rating, Barnyardgrass [6, 19]: 50
Plant response rating, Barnyardgrass [6, 20]: 60
Plant response rating, Barnyardgrass [6, 21]: 20
Plant response rating, Barnyardgrass [6, 22]: 10
Plant response rating, Barnyardgrass [6, 23]: 40
Plant response rating, Barnyardgrass [6, 24]: 65
Plant response rating, Ragweed [7, 18]: 70
Plant response rating, Ragweed [7, 19]: 90
Plant response rating, Ragweed [7, 25]: 90
Plant response rating, Ragweed [7, 20]: 95
Plant response rating, Ragweed [7, 21]: 80
Plant response rating, Ragweed [7, 22]: 5
Plant response rating, Ragweed [7, 24]: 100
Plant response rating, Beggarticks [8, 17]: 95
Plant response rating, Beggarticks [8, 18]: 98
Plant response rating, Beggarticks [8, 19]: 95
Plant response rating, Beggarticks [8, 20]: 100
Plant response rating, Beggarticks [8, 21]: 100
Plant response rating, Beggarticks [8, 22]: 65
Plant response rating, Beggarticks [8, 23]: 100
Plant response rating, Beggarticks [8, 24]: 100
Plant response rating, Morningglory [9, 13]: 50
Plant response rating, Morningglory [9, 26]: 90
Plant response rating, Morningglory [9, 14]: 30
Plant response rating, Morningglory [9, 16]: 95
Plant response rating, Surinam Grass [10, 13]: 75
Plant response rating, Surinam Grass [10, 26]: 75
Plant response rating, Surinam Grass [10, 14]: 10
Plant response rating, Surinam Grass [10, 16]: 95
Plant response rating, Nightshade [11, 13]: 80
Plant response rating, Nightshade [11, 26]: 98
Plant response rating, Nightshade [11, 14]: 25
Plant response rating, Nightshade [11, 16]: 98
Plant response rating, Arrowleaf Sida [12, 17]: 90
Plant response rating, Arrowleaf Sida [12, 18]: 50
Plant response rating, Arrowleaf Sida [12, 19]: 95
Plant response rating, Arrowleaf Sida [12, 20]: 90
Plant response rating, Arrowleaf Sida [12, 21]: 85
Plant response rating, Arrowleaf Sida [12, 22]: 20
Plant response rating, Arrowleaf Sida [12, 23]: 98
Plant response rating, Arrowleaf Sida [12, 24]: 100

CCc1sc2ccc(C)cc2c1-c1c(O)c(C)nn(C)c1=O [Compound 47]
Plant response rating, Goosegrass [1, 13]: 0
Plant response rating, Goosegrass [1, 14]: 0
Plant response rating, Goosegrass [1, 15]: 0
Plant response rating, Goosegrass [1, 16]: 0
Plant response rating, Horseweed [2, 17]: 40
Plant response rating, Horseweed [2, 19]: 60
Plant response rating, Horseweed [2, 20]: 75
Plant response rating, Horseweed [2, 21]: 40
Plant response rating, Ryegrass, Italian [3, 17]: 0
Plant response rating, Ryegrass, Italian [3, 18]: 30
Plant response rating, Ryegrass, Italian [3, 19]: 0
Plant response rating, Ryegrass, Italian [3, 25]: 30
Plant response rating, Ryegrass, Italian [3, 20]: 10
Plant response rating, Ryegrass, Italian [3, 21]: 0
Plant response rating, Ryegrass, Italian [3, 22]: 5
Plant response rating, Ryegrass, Italian [3, 24]: 50
Plant response rating, Waterhemp [4, 17]: 80
Plant response rating, Waterhemp [4, 18]: 90
Plant response rating, Waterhemp [4, 19]: 85
Plant response rating, Waterhemp [4, 25]: 90
Plant response rating, Waterhemp [4, 20]: 100
Plant response rating, Waterhemp [4, 21]: 75
Plant response rating, Waterhemp [4, 22]: 50
Plant response rating, Waterhemp [4, 24]: 100
Plant response rating, Field Bindweed [5, 17]: 75
Plant response rating, Field Bindweed [5, 18]: 50
Plant response rating, Field Bindweed [5, 19]: 85
Plant response rating, Field Bindweed [5, 20]: 90
Plant response rating, Field Bindweed [5, 21]: 70
Plant response rating, Field Bindweed [5, 22]: 50
Plant response rating, Field Bindweed [5, 23]: 90
Plant response rating, Field Bindweed [5, 24]: 100
Plant response rating, Barnyardgrass [6, 17]: 30
Plant response rating, Barnyardgrass [6, 18]: 0
Plant response rating, Barnyardgrass [6, 19]: 40
Plant response rating, Barnyardgrass [6, 20]: 60
Plant response rating, Barnyardgrass [6, 21]: 10
Plant response rating, Barnyardgrass [6, 22]: 0
Plant response rating, Barnyardgrass [6, 23]: 50
Plant response rating, Barnyardgrass [6, 24]: 95
Plant response rating, Ragweed [7, 17]: 90
Plant response rating, Ragweed [7, 18]: 95
Plant response rating, Ragweed [7, 19]: 95
Plant response rating, Ragweed [7, 25]: 98
Plant response rating, Ragweed [7, 20]: 95
Plant response rating, Ragweed [7, 21]: 80
Plant response rating, Ragweed [7, 22]: 80
Plant response rating, Ragweed [7, 24]: 100
Plant response rating, Beggarticks [8, 17]: 100
Plant response rating, Beggarticks [8, 18]: 100
Plant response rating, Beggarticks [8, 19]: 98
Plant response rating, Beggarticks [8, 20]: 98
Plant response rating, Beggarticks [8, 21]: 85
Plant response rating, Beggarticks [8, 22]: 100
Plant response rating, Beggarticks [8, 23]: 100
Plant response rating, Beggarticks [8, 24]: 100
Plant response rating, Morningglory [9, 13]: 75
Plant response rating, Morningglory [9, 26]: 100
Plant response rating, Morningglory [9, 14]: 25
Plant response rating, Morningglory [9, 16]: 100
Plant response rating, Surinam Grass [10, 13]: 0
Plant response rating, Surinam Grass [10, 26]: 35
Plant response rating, Surinam Grass [10, 14]: 0
Plant response rating, Surinam Grass [10, 16]: 35
Plant response rating, Nightshade [11, 13]: 98
Plant response rating, Nightshade [11, 26]: 100
Plant response rating, Nightshade [11, 14]: 80
Plant response rating, Nightshade [11, 16]: 100
Plant response rating, Arrowleaf Sida [12, 17]: 50
Plant response rating, Arrowleaf Sida [12, 18]: 0
Plant response rating, Arrowleaf Sida [12, 19]: 60
Plant response rating, Arrowleaf Sida [12, 20]: 60
Plant response rating, Arrowleaf Sida [12, 21]: 40
Plant response rating, Arrowleaf Sida [12, 22]: 0
Plant response rating, Arrowleaf Sida [12, 23]: 75
Plant response rating, Arrowleaf Sida [12, 24]: 90
